# In patent publication US12037329B2, “SphK inhibitors and methods of making and using same” (Washington University, priority 2021, dated 2024):
# “Also recorded” adds a separate entry of the source.
# Legend:
# [1] = target: T1, SphK2 (Homo sapiens (Human), UniProt Q9NRA0); assay: ADP-Glo kinase assay, SphK2; format: biochemical
# Description: The bioluminescence-based kinase assay such as ADP-Glo assay measures ADP formed from a kinase reaction with a luciferase. Upon the completion of a kinase reaction, the remaining ATP is depleted, the ADP produced in the kinase reaction is then converted to ATP and the detection is based on a sensitive and robust bioluminescence reaction. It has a broad linear range of ATP concentrations and high dynamic range. To determine the inhibition activity of the compounds, the ADP-Glo kinase assay was used which was able to detect down to 20% of 1 μM ATP to ADP conversion (FIG. 4A).
# ADP-Glo (Promega, Madison, WI) kinase assay were used to evaluate the kinase activity of SphK. ATP to ADP standard curves were prepared in the kinase buffer to assess the linearity of the assay in order to calculate the amount of ADP produced in each tested conditions (FIG. 4A). SB10 (tenfold signal to background ra-tio) of SphK was also determined to evaluate the enzyme perfor-mance and to optimize the kinase reaction condition in this system. In brief, for SphK2, […], 100 μM of D-erythro-Sphingosine (Tocris Bioscience, Minneapolis, MN), and 2 ng of recombinant human SphK2 (R&D Systems, Minneapolis, MN) with desired concentration of each synthesized compound were used for SphK2 kinase reaction. For SphK1, exact same reaction condition was used except 0.5 ng of recombinant human SphK1 was used.
# To evaluate the SphK selectivity of each compound, 125 μM of each compound in reaction buffer ([…] Tris, pH 8.0, […] MgCl2, and 0.1 mg/mL BSA) with 5% DMSO was incubated with either SphK1 or SphK2 in a 384-well solid white low volume microplate (Corning, Corning, NY), and the reaction was initiated by adding mixture of ATP and D-erythro-Sphingosine to a total volume of 5 μL, after 1 h incubation at room temperature with gentle shaking, the reaction was stopped by adding equal volume of ADP-Glo buffer and incubated for another hour to remove excess amount of ATP from the reaction. Afterwards, 10 μL of kinase detection reagent was added, mixed, and incubated for 30 min under dark. Luminescence output was recorded using a SpectraMax M5 Multi-Mode Microplate Readers (Molecular Devices, San Jose, CA), an integration time of 500 ms was used. All reactions were performed in triplicate. The enzyme activity of SphK in the presence of each compound was normalized to the no treatment control. […] The final data was calculated using Prism 7.0 (GraphPad Software, La Jolla, CA), IC50 was determined using Nonlinear regression (curve fit) four parameters dose-response calculations.
# [2] = tested on: U-251 MG human glioblastoma cells; assay: U-251 MG cell viability, Hoechst 33258/propidium iodide imaging, 125 μM, 24 h; format: cell-based; details: hydrochloride
# Procedure: Cells were seeded into a 96-well microplate (Corning, Corning, NY) at 3000 cells/well and incubated for approximately 16 h. […] Cells were imaged using MetaXpress High-Content Image Acquisition and Analysis Software 6.1 and ImageXpress Micro XLS Wide-field High-Content Analysis System (Molecular Devices, San Jose, CA). Images were taken with a Nikon 10 CFI Plan Fluor objective. For all samples, triplicated measurements were performed.
# [3] = tested on: U-251 MG cells; assay: CellTiter96 MTS cell viability dose response, U-251 MG; format: cell-based, human; details: Homo sapiens; U-251 MG cells, 72 h, MTS; read-out: IC50 (cell viability)
# Procedure: The anti-tumor activity of these inhibitors was further examined at different doses.
# (§1) Cell viability was determined using CellTiter96 MTS Assay and compared to DMSO treated control cells. IC50 values were calculated by non-linear regression analysis of the dose-response curve using GraphPad Prism version 8.00 for Windows (GraphPad Software).
# [4] = tested on: SiHa cells; assay: CellTiter96 MTS cell viability dose response, SiHa; format: cell-based; details: Homo sapiens
# Procedure: (§2) The anti-tumor activity of these inhibitors was also examined in different cell types. U-251 MG cells, SiHa cells, BT20 cells, and MDA-MB-453 cells were treated with increasing dose (10^−10 M to 10^−4 M) of SphK2 inhibitor TZ72-53 (21b), and dose response curves were generated (FIG. 9). IC50 values of 21b in the four different cell lines were calculated by non-linear regression analysis of the dose-response curve and are shown in Table 5 below.
# as §1
# [5] = tested on: BT20 cells; assay: CellTiter96 MTS cell viability dose response, BT20; format: cell-based; details: Homo sapiens, BT-20
# Procedure: as §2, §1
# [6] = tested on: MDA-MB-453 cells; assay: CellTiter96 MTS cell viability dose response, MDA-MB-453; format: cell-based; details: Homo sapiens, MD-MB-453 (MDA-MB-453) cells
# Procedure: as §2, §1
# [7] = target: SphK1 (Homo sapiens (Human), UniProt Q9NYA1); details: cited from earlier work
# Sequence of SphK1 (Q9NYA1 whole entry): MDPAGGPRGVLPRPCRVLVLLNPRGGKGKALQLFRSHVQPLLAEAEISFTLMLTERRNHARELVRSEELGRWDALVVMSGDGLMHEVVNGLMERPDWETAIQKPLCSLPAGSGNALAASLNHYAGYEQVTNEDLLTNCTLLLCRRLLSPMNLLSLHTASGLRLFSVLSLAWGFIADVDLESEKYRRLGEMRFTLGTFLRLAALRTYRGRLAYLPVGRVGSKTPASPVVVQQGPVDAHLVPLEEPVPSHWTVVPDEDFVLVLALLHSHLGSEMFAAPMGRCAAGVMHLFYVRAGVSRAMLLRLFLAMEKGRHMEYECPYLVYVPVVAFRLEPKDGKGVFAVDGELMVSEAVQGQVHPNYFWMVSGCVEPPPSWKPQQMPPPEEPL
# [8] = target: T1, SphK2; details: human SphK2; cited from earlier work
# T1 sequence (Q9NRA0 whole entry): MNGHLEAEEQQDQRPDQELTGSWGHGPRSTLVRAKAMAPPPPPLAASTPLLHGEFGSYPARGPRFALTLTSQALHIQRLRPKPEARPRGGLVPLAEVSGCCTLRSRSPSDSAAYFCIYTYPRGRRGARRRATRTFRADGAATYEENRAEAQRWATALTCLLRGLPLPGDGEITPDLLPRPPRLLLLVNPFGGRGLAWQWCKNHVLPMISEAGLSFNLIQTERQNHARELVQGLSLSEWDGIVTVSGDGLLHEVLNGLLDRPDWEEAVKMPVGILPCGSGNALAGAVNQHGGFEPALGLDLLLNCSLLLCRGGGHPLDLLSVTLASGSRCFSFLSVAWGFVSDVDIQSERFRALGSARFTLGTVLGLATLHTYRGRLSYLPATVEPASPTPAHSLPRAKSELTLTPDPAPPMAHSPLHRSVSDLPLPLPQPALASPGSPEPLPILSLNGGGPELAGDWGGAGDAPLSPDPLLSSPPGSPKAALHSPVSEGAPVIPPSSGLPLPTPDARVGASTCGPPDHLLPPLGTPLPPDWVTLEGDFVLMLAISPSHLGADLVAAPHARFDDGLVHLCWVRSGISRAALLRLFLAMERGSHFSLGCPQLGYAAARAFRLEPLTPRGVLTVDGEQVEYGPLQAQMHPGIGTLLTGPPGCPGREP
structure (smiles),measurement,setting,value
"Cl.N=C(N)N1CCC[C@H]1Cc1nc(-c2ccc(Cn3cc(-c4ccc(C(F)(F)F)cc4)nn3)cc2)no1 [Compound 21b, (S)-2-((3-(4-((4-(4-(Trifluoromethyl)phenyl)-1H-1,2,3-triazol-1-yl)methyl)phenyl)-1,2,4-oxadiazol-5-yl)methyl)-pyrrolidine-1-carboximidamide hydrochloride]",SphK2 inhibitory activity (in words),[1],no inhibitory activity
same,selectivity/specificity for SphK2 over SphK1,"[1]; 125 μM of each compound, SphK2 versus SphK1, FIG. 5, hydrochloride",lowest specificity; also recorded: no selectivity
same,antitumor activity / reduction of U-251 MG cell viability (in words),[2],high anti-tumor activity; also recorded: significant reduction
same,IC50,[3],11 µM
same,IC50,[4],13 µM
same,IC50,[5],21.3 µM
same,IC50,[6],35.8 µM
Cc1ccc(S(=O)(=O)Nc2ccccc2C=Nc2ccccc2NS(=O)(=O)c2ccc(C)cc2)cc1 [MP-A08],Ki,[7],27 ± 3 µM
same,Ki,[8],6.9 ± 0.8 µM
